Earlier results in patent US20030008852A1, “Transdermal system containing acetylsalicylic acid for treatment of migraine” (priority 1999, published 2003).

Tested on: migraine
Details: oral, 235 mg every second day

In the case of `CC(=O)Oc1ccccc1C(=O)O` [acetylsalicylic acid], the “reduction in the migraine recurrence rate compared with the placebo group” value is given as 20%.
